Experimental findings from patent publication US11077167B2, “Agent for promoting skeletal muscle injury repair” (Osaka University, priority 2017, dated 2021) are described below.

Assay [1] relates to Human skeletal muscle myoblasts (HSMMs). The assay can be described thus: Chemotactic capacity (Chemotaxicell membrane). The format is cell-based. The note with it: SV peptide 20 ng/mL as chemoattractant; 12 hours; vs PBS or random SV. On the procedure:
(§1) Human skeletal muscle myoblasts (HSMMs) were purchased from Lonza and used. The medium used for HSMM culture was the supplier's recommended medium (Skeletal Muscle Growth Media-2 supplemented with SingleQuots Kit).
A polycarbonate membrane with a pore size of 8 μm (Chemotaxicell: Kurabo Industries LTD.) was immersed in a 10 μg/mL fibronectin solution at room temperature for 30 minutes for coating the membrane. A medium containing the SV peptide (20 ng/mL, SV group), the random SV (20 ng/mL, random SV group), or PBS (PBS group) as a chemoattractant was added to a lower chamber. On an upper chamber, human skeletal muscle satellite cells and human skeletal muscle myoblasts were separately seeded at 2.0×10^4 cells/mL in DMEM containing 0.1% BSA. A pair of chambers was incubated at 37° C. for 12 hours. The cells on the upper surface of the membrane were removed with a swab, and the membrane was fixed with a 10% neutral buffered formalin solution (Wako Pure Chemical Industries, Ltd.) and stained with hematoxylin. The number of cells migrated to the lower surface of the membrane was measured under an optical microscope.

Assay [2] has the same test system. Description: Myogenin expression by immunofluorescence staining. The format is cell-based. Conditions: SV peptide 20 ng/mL, HS group = 2% horse serum positive control.
From the text: as §1
Myogenin is known to be expressed when myoblasts differentiate into myotube cells. In this experiment, myogenin expression was used as an index to examine the effect of the SV peptide on the differentiation of human skeletal muscle myoblasts.
Human skeletal muscle myoblasts were cultured in a medium containing the SV peptide (20 ng/mL, SV group), the random SV (20 ng/mL, random SV group), or PBS (PBS group) for 48 or 72 hours. For a positive control, human skeletal muscle myoblasts were cultured in an F-12/DMEM medium containing 2% horse serum, which is known to facilitate myoblast differentiation into myotube cells (Moira A. Lawson et al.: Cells Tissues Organs 2000; 167: 130-137) (HS group). After 48- or 72-hour culture, the cells were immunostained with an anti-human myogenin antibody by the usual method and observed with a fluorescence microscope.

Assay [3] shares this test system. The assay can be described thus: Cell migratory capacity (cell-denuded area). The format is cell-based. Conditions: SV peptide 20 ng/mL. On the procedure: as §1
(§2) Human skeletal muscle satellite cells and human skeletal muscle myoblasts were separately cultured on 60-mm (diameter) dishes (Iwaki) to 100% confluency. From each dish, a 2-mm-wide strip of cells were removed, and the medium was replaced with a medium containing the SV peptide (20 ng/mL, SV group), the random SV (20 ng/mL, random SV group), or PBS (PBS group). Thereafter, culture was continued. Images were taken with a digital camera mounted on a phase-contrast microscope every 12 hours. The cell-denuded area was measured using the image-analysis software ImageJ (NIH, USA). The cell migration percentage was determined by calculating the percentage of reduction in the cell-denuded area relative to the value immediately after cell removal.

The subject of assay [4] is Human skeletal muscle satellite cells (HskMSCs). Description: Cell migratory capacity (cell-denuded area). The format is cell-based. The note with it: SV peptide 20 ng/mL.
From the text: Human skeletal muscle satellite cells (HskMSCs) were purchased from ScienCell Research Laboratories and used. The medium used for HskMSC culture was the supplier's recommended medium (Skeletal Muscle Cell Medium containing 5% FBS, Skeletal Muscle Cell Growth Supplement, and penicillin/streptomycin solution).
as §2

Assay [5] concerns muscle injury model rats (incised masseter muscles on both sides). Description: Behavioral physiological experiment (feeding behavior, body weight), Example 1. The format is in vivo, Jcl:SD rats. Conditions: 1 mL intramuscular. On the procedure: (§3) Incisions were made in masseter muscles on both sides in Jcl:SD rats (10 weeks old). Immediately after muscle incision, 1 mL each of the SV peptide (20 ng/mL) was intramuscularly administered into several sites surrounding the cut surfaces. The incision on each side was made along a straight line connecting the lateral angle of the eye and the mandibular angle, extending in depth from the fascia on the skin side to the lateral periosteum on the mandibular ramus. The cut surfaces were subjected to electrocoagulation with an electric scalpel for the arrest of bleeding (see FIG. 1).
Feeding behavior and body weight of each rat was monitored preoperatively and 1 and 2 weeks postoperatively. More specifically, each rat was housed in a transparent plastic cage of 30 cm in length×30 cm in width×30 cm in height, and the behavior was recorded on video cameras during the active time of rats (18:00 to 22:00). Food intake and mastication time were measured, and the food intake per unit of mastication time (feeding efficiency) was calculated. This experiment was performed on a muscle injury model subjected to administration of the SV peptide into the incised masseter muscles on both sides (SV group) and on a muscle injury model subjected to administration of PBS into the incised masseter muscles on both sides (PBS group).

Assay [6] shares this test system. The assay can be described thus: Electrophysiological experiment (masseter EMG, Lissajous pattern), Example 1. The format is in vivo, Jcl:SD rats. Conditions: 1 week postoperatively. The protocol:
as §3
This experiment was performed on rats subjected to incision of masseter muscles on both sides and subsequent administration of the SV peptide into the incised left masseter muscle and of PBS into the incised right masseter muscle. Bipolar needle electrodes were retained in the masseter muscles on both sides, and myogenic potential signals received through connectors fixed to both sides of the parietal bone were monitored. Electromyographic (EMG) data were recorded preoperatively and 1 week postoperatively. Generally, in the electromyogram of masseter muscles recorded during food ingestion, the cutting phase and the grinding phase in the masticatory movement show different waveforms. […]
Lissajous pattern (FIG. 3). […] Based on this, the chewing side preference was determined.

On to SVVYGLR [SV peptide], for which the “chemotactic capacity (number of cells migrated to lower surface of membrane)” value in assay [1] is given as “significantly higher chemotactic capacity than that of the counterpart in the PBS group or the random SV group”. For the same substance, the “percentage of myogenin-positive cells” value in assay [2] (48-hour culture) is “significantly higher than that in the PBS group or the random SV group, but significantly lower than that in the HS group”; in assay [2] (72-hour culture) it was “significantly higher than that in the PBS group or the random SV group, and comparable to that in the HS group”. Also, the “cell migratory capacity (cell migration percentage)” value in assay [3] (36 and 48 hours after cell removal) is given as “significantly different from that in the PBS group or the random SV group”; in assay [3] (24 hours after cell removal and thereafter) it was “higher than that in the PBS group or the random SV group”. Moreover, the cell migratory capacity entry in assay [4] is given as “did not affect”. Moreover, the “feeding efficiency (food intake per unit of mastication time)” value in assay [5] (postoperative week 1, relative to preoperative value = 1, SV peptide 20 ng/mL) was “reduced”; in assay [5] (postoperative week 2, relative to preoperative value = 1, SV peptide 20 ng/mL), “recovered to almost the preoperative level”. For the same substance, the chewing side preference entry in assay [6] (SV peptide into left, PBS into right masseter muscle) was “left-side chewing preference was seen postoperatively”. Besides, the “mean myogenic potential of the left masseter muscle during left-side chewing” value in assay [6] (left = SV peptide side, right = PBS side) is “reduced postoperatively, but the degree of the reduction was smaller than that in the mean myogenic potential of the right masseter muscle”.
